The values below come from US20090012103A1, “SUBSTITUTED HETEROCYCLIC COMPOUNDS” (priority 2007, published 2009).

Molecules are shown by their SMILES.

wild-type human cardiac sodium channel, hNav1.5, sequence (Q14524 whole entry): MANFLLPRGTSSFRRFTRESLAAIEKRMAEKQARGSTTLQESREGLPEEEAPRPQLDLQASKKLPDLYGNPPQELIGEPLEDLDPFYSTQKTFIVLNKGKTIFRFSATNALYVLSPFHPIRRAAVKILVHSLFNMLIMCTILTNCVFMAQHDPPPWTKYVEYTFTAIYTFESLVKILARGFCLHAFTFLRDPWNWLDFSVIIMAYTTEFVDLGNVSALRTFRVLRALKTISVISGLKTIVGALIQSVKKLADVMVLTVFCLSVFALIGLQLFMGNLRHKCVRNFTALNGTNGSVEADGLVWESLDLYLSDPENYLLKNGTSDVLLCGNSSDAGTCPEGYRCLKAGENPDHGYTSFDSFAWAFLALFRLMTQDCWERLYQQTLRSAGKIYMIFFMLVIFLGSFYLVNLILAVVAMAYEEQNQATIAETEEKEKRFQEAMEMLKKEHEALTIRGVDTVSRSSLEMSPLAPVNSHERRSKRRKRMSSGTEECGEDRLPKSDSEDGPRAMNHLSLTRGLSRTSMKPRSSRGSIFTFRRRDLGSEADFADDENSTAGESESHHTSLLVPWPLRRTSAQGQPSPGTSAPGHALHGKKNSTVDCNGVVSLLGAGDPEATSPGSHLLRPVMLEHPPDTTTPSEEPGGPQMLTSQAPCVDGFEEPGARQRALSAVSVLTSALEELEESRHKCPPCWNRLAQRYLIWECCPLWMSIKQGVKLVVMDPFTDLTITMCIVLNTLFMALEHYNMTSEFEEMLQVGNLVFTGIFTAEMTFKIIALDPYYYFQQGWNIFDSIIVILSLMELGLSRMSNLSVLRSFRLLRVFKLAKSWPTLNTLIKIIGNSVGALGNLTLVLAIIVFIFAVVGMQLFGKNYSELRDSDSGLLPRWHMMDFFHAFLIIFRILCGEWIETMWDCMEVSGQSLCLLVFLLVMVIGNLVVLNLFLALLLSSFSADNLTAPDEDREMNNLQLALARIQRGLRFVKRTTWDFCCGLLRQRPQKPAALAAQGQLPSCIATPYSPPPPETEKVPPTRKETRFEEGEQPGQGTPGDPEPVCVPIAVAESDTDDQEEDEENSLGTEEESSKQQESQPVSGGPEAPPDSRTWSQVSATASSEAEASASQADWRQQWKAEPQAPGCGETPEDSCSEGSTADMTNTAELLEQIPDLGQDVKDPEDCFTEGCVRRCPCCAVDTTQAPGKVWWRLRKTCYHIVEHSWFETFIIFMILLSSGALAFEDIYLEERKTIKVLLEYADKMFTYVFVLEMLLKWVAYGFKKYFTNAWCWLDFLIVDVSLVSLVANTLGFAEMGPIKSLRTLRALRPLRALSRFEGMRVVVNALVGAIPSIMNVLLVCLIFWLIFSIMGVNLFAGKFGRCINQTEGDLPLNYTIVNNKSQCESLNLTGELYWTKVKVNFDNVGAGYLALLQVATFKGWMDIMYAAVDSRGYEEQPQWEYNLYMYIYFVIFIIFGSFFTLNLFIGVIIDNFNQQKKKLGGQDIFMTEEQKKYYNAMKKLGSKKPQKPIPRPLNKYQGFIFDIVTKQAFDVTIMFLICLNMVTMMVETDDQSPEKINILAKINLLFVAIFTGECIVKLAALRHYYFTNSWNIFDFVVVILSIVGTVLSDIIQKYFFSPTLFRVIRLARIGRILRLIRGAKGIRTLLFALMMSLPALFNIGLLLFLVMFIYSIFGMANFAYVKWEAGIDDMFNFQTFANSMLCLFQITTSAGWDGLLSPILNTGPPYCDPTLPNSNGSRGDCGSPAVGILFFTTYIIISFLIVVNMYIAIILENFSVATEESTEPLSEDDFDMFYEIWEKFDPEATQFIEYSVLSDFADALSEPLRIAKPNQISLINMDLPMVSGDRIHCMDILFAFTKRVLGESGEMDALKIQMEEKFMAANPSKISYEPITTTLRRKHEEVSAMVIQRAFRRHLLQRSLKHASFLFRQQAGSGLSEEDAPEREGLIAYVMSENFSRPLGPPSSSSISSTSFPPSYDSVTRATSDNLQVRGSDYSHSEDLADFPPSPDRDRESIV

The assay concerns the target wild-type human cardiac sodium channel, hNav1.5 (Homo sapiens, UniProt Q14524). In words: Late INa screening assay (late sodium current, PatchXpress whole cell patch clamp). The class given is cell-based. As to conditions: compound at 10 μM; read-out: Late INa % blk.
Consider `CC1=C(C(=O)N2CCC(c3ccccc3)CC2)C(c2cccc3ccccc23)C2=C(CCCC2=O)N1` (stereo not drawn) [PT-170, 2-methyl-4-(naphthalen-1-yl)-3-(4-phenylpiperidine-1-carbonyl)-4,6,7,8-tetrahydroquinolin-5(1H)-one], for which the inhibition at 10 µM was found to be 9.8%. Regarding `CC1=C(C(=O)OCc2ccccc2)C(c2ccccc2-c2c(C)noc2C)n2nnnc2N1` (stereo not drawn) [PT-376, benzyl 7-(2-(3,5-dimethylisoxazol-4-yl)phenyl)-5-methyl-4,7-dihydrotetrazolo[1,5-a]pyrimidine-6-carboxylate], the inhibition at 10 µM worked out at 61%. In the case of `CC1=C(C(=O)OCc2ccccc2)C(c2ccccc2)C2=C(CCCC2=O)N1` (stereo not drawn) [PT-323, benzyl 2-methyl-5-oxo-4-phenyl-1,4,5,6,7,8-hexahydroquinoline-3-carboxylate], the inhibition at 10 µM worked out at 48.9%. Regarding `CCOC(=O)C1=C(C)Nc2nnnn2C1c1cccc(OCc2cccc(C(=O)O)c2)c1` (stereo not drawn) [PT-269, 3-((3-(6-(ethoxycarbonyl)-5-methyl-4,7-dihydrotetrazolo[1,5-a]pyrimidin-7-yl)phenoxy)methyl)benzoic acid], the inhibition at 10 µM was 12.3%. As to `CC1=C(C(=O)OCc2ccc(-c3nnn[nH]3)cc2)C(c2cccc3ccccc23)n2nnnc2N1` (stereo not drawn) [PT-060, 4-(1H-tetrazol-5-yl)benzyl 5-methyl-7-(naphthalen-1-yl)-4,7-dihydrotetrazolo[1,5-a]pyrimidine-6-carboxylate], the inhibition at 10 µM came to 5.6%.

On to `CCOC(=O)C1=C(C)NC2=C(C(=O)c3ccccc32)C1c1cccs1` (stereo not drawn) [PT-187, ethyl 2-methyl-5-oxo-4-(thiophen-2-yl)-4,5-dihydro-1H-indeno[1,2-b]pyridine-3-carboxylate], for which the inhibition at 10 µM was -2.6%.

As for `CC1=C(C(=O)OCC2CC2)C(c2c(-c3ccc(C(=O)O)cc3)sc3ccccc23)n2nnnc2N1` (stereo not drawn) [PT-293, 4-(3-(6-((cyclopropylmethoxy)carbonyl)-5-methyl-4,7-dihydrotetrazolo[1,5-a]pyrimidin-7-yl)benzo[b]thiophen-2-yl)benzoic acid], the inhibition at 10 µM was 7.7%. `CCOC(=O)C1=C(CC)NC2=C(C(=O)CCC2)C1c1ccc(OC)c2ccccc12` (stereo not drawn) [PT-136, ethyl 2-ethyl-4-(4-methoxynaphthalen-1-yl)-5-oxo-1,4,5,6,7,8-hexahydroquinoline-3-carboxylate]: the inhibition at 10 µM stood at 45.2%.

On to `CCOC(=O)C1=C(C)Nc2ccnn2C1c1ccc(OC)cc1C#N` (stereo not drawn) [PT-491, ethyl 7-(2-cyano-4-methoxyphenyl)-5-methyl-4,7-dihydropyrazolo[1,5-a]pyrimidine-6-carboxylate], for which the inhibition at 10 µM was -0.9%. Consider `CC1=C(C(=O)OCc2cccc(C#N)c2)C(c2cccc3ccccc23)n2nnnc2N1` (stereo not drawn) [PT-278, 3-cyanobenzyl 5-methyl-7-(naphthalen-1-yl)-4,7-dihydrotetrazolo[1,5-a]pyrimidine-6-carboxylate], for which the inhibition at 10 µM turned out to be 63.9%. Then `CCOC(=O)C1=C(C)NC2=C(C(=O)CCC2)C1c1c(OC)ccc2ccccc12` (stereo not drawn) [PT-134, ethyl 4-(2-methoxynaphthalen-1-yl)-2-methyl-5-oxo-1,4,5,6,7,8-hexahydroquinoline-3-carboxylate], with 15.5%; and `CCOC(=O)C1=C(C)NC(C)=C(C(=O)OCC)C1c1ccccc1-c1cccc(C#N)c1` [PT-435, diethyl 4-(3′-cyanobiphenyl-2-yl)-2,6-dimethyl-1,4-dihydropyridine-3,5-dicarboxylate], with 19.4%.

Turning to `CCCC1=C(C(=O)OCC)C(c2ccsc2)C2=C(CC(C)(C)CC2=O)N1` (stereo not drawn) [PT-151, ethyl 7,7-dimethyl-5-oxo-2-propyl-4-(thiophen-3-yl)-1,4,5,6,7,8-hexahydroquinoline-3-carboxylate], the inhibition at 10 µM was found to be 35%. On to `CC1=C(c2nnc(-c3ccccc3)o2)C(c2cccc3ccccc23)n2nnnc2N1` (stereo not drawn) [PT-203, 2-(5-methyl-7-(naphthalen-1-yl)-4,7-dihydrotetrazolo[1,5-a]pyrimidin-6-yl)-5-phenyl-1,3,4-oxadiazole], for which the inhibition at 10 µM came to 10.9%. Then `CCOC(=O)C1=C(C)Nc2nnnn2C1c1cccc(C2C(C(=O)OCC)=C(C)Nc3nnnn32)c1` (stereo not drawn) [PT-202, diethyl 7,7′-(1,3-phenylene)bis(5-methyl-4,7-dihydrotetrazolo[1,5-a]pyrimidine-6-carboxylate)], with 9.7%; and `COc1cc(OC)c(C2C(C(=O)OCc3ccccc3)=C(C)Nc3nnnn32)c(OC)c1` (stereo not drawn) [PT-343, benzyl 5-methyl-7-(2,4,6-trimethoxyphenyl)-4,7-dihydrotetrazolo[1,5-a]pyrimidine-6-carboxylate], with 34.4%; and `CCOC(=O)C1=C(C)Nc2[nH]nc(-c3ccc(C)cc3)c2C1c1cccc2ccccc12` (stereo not drawn) [PT-073, ethyl 6-methyl-4-(naphthalen-1-yl)-3-p-tolyl-4,7-dihydro-1H-pyrazolo[3,4-b]pyridine-5-carboxylate], with -3.2%. With `CC1=C(C(=O)NNC(=O)Cc2ccccc2)C(c2cccc3ccccc23)C2=C(CCCC2=O)N1` (stereo not drawn) [PT-266, 2-methyl-4-(naphthalen-1-yl)-5-oxo-N′-(2-phenylacetyl)-1,4,5,6,7,8-hexahydroquinoline-3-carbohydrazide], the inhibition at 10 µM was determined as 8.8%. With `CC1=C(C(=O)OCc2ccccc2)C(c2ccccc2-c2ccc(C(C)O)cc2)n2nnnc2N1` (stereo not drawn) [PT-404, benzyl 7-(4′-(1-hydroxyethyl)biphenyl-2-yl)-5-methyl-4,7-dihydrotetrazolo[1,5-a]pyrimidine-6-carboxylate], the inhibition at 10 µM was 80.9%. For the molecule `CC1=C(C(=O)OCc2ccccc2)C(c2cncs2)n2nnnc2N1` (stereo not drawn) [PT-365, benzyl 5-methyl-7-(thiazol-5-yl)-4,7-dihydrotetrazolo[1,5-a]pyrimidine-6-carboxylate], the inhibition at 10 µM stood at 26.9%. Then `COC(=O)C1=C(C)Nc2[nH]ncc2C1c1sc(Cl)nc1Cl` (stereo not drawn) [PT-510, methyl 4-(2,4-dichlorothiazol-5-yl)-6-methyl-4,7-dihydro-1H-pyrazolo[3,4-b]pyridine-5-carboxylate], with 19.9%; and `CC1=C(C(=O)N2CCC(c3cccc(C(=O)O)c3)CC2)C(c2cccc3ccccc23)C2=C(CCCC2=O)N1` (stereo not drawn) [PT-172, 3-(1-(2-methyl-4-(naphthalen-1-yl)-5-oxo-1,4,5,6,7,8-hexahydroquinoline-3-carbonyl)piperidin-4-yl)benzoic acid], with 16.3%.

As to `CCOC(=O)C1=C(C)Nc2ccnn2C1c1c(Br)sc2ccccc12` (stereo not drawn) [PT-488, ethyl 7-(2-bromobenzo[b]thiophen-3-yl)-5-methyl-4,7-dihydropyrazolo[1,5-a]pyrimidine-6-carboxylate], the inhibition at 10 µM turned out to be 82.3%. As for `CCOC(=O)C1=C(C)Nc2nnnn2C1c1cccc(OCc2ccc(C(=O)O)cc2)c1` (stereo not drawn) [PT-286, 4-((3-(6-(ethoxycarbonyl)-5-methyl-4,7-dihydrotetrazolo[1,5-a]pyrimidin-7-yl)phenoxy)methyl)benzoic acid], the inhibition at 10 µM amounted to 8.8%.

With `CC1=C(C(=O)OCc2ccccc2)C(c2ccc3ccccc3n2)n2nnnc2N1` (stereo not drawn) [PT-196, benzyl 5-methyl-7-(quinolin-2-yl)-4,7-dihydrotetrazolo[1,5-a]pyrimidine-6-carboxylate], the inhibition at 10 µM was 32.5%. For `CC1=C(C(=O)OCc2ccccc2)C(c2ccccc2-c2ccccc2)C2=C(CCCC2=O)N1` (stereo not drawn) [PT-336, benzyl 4-(biphenyl-2-yl)-2-methyl-5-oxo-1,4,5,6,7,8-hexahydroquinoline-3-carboxylate], the inhibition at 10 µM came to 60.1%. The same measure for `CC1=C(C(=O)OCc2ccccc2)C(c2sccc2B(O)O)n2nnnc2N1` (stereo not drawn) [PT-256, 2-(6-(benzyloxycarbonyl)-5-methyl-4,7-dihydrotetrazolo[1,5-a]pyrimidin-7-yl)thiophen-3-ylboronic acid]: 25.7%. With `CC1=C(C(=O)OCc2ccccc2)C(c2ccccc2Br)c2cn[nH]c2N1` (stereo not drawn) [PT-330, benzyl 4-(2-bromophenyl)-6-methyl-4,7-dihydro-1H-pyrazolo[3,4-b]pyridine-5-carboxylate], the inhibition at 10 µM stood at 21.2%. Consider `CCOC(=O)C1=C(C)Nc2nnnn2C1c1ccccc1-c1ccc(-c2nnn[nH]2)cc1` (stereo not drawn) [PT-500, ethyl 7-(4′-(1H-tetrazol-5-yl)biphenyl-2-yl)-5-methyl-4,7-dihydrotetrazolo[1,5-a]pyrimidine-6-carboxylate], for which the inhibition at 10 µM turned out to be 2.7%.

As for `CC1=C(C(=O)OCc2ccccc2)C(c2ccc(C)c3ccccc23)n2nnnc2N1` (stereo not drawn) [PT-031, benzyl 5-methyl-7-(4-methylnaphthalen-1-yl)-4,7-dihydrotetrazolo[1,5-a]pyrimidine-6-carboxylate], the inhibition at 10 µM came to 28.6%.

As to `COC(=O)c1ccc(-c2ccc(COC(=O)C3=C(C)Nc4nnnn4C3c3cccc4ccccc34)cc2)cc1` (stereo not drawn) [PT-200, (4′-(methoxycarbonyl)biphenyl-4-yl)methyl 5-methyl-7-(naphthalen-1-yl)-4,7-dihydrotetrazolo[1,5-a]pyrimidine-6-carboxylate], the inhibition at 10 µM was 7.4%. Regarding `CCOC(=O)C1=C(C)NC(C)=C(C(=O)OCC)C1c1ccc(OC)cc1OC` [PT-429, diethyl 4-(2,4-dimethoxyphenyl)-2,6-dimethyl-1,4-dihydropyridine-3,5-dicarboxylate], the inhibition at 10 µM turned out to be 14.9%.

For the molecule `CCOC(=O)C1=C(C)Nc2[nH]ncc2C1c1cccs1` (stereo not drawn) [PT-473, ethyl 6-methyl-4-(thiophen-2-yl)-4,7-dihydro-1H-pyrazolo[3,4-b]pyridine-5-carboxylate], the inhibition at 10 µM came to 9.4%.

For `CCOC(=O)C1=C(C)Nc2nnnn2C1c1ccccc1OCc1cccc(C(=O)OC)c1` (stereo not drawn) [PT-480, ethyl 7-(2-(3-(methoxycarbonyl)benzyloxy)phenyl)-5-methyl-4,7-dihydrotetrazolo[1,5-a]pyrimidine-6-carboxylate], the inhibition at 10 µM came out at 5.4%.

Regarding `CC1=C(C(=O)OCc2ccccc2)C(c2ccccc2)c2cn[nH]c2N1` (stereo not drawn) [PT-372, benzyl 6-methyl-4-phenyl-4,7-dihydro-1H-pyrazolo[3,4-b]pyridine-5-carboxylate], the inhibition at 10 µM turned out to be 20.8%.

As for `CCOC(=O)C1=C(C)Nc2nnnn2C1c1ccc(N(C)C)cc1[N+](=O)[O-]` (stereo not drawn) [PT-501, ethyl 7-(4-(dimethylamino)-2-nitrophenyl)-5-methyl-4,7-dihydrotetrazolo[1,5-a]pyrimidine-6-carboxylate], the inhibition at 10 µM was determined as 2.5%.
